Reference: PMC8286817, “Identifying SARS-CoV-2 antiviral compounds by screening for small molecule inhibitors of Nsp14 RNA cap methyltransferase” (Biochemical Journal, 2021)
Structures can show the parent of a compound that is named as a salt. Peptide text beside a SMILES is read from it. * marks the point of attachment. Cbz = O=C(OCc1ccccc1)*

These compounds were tested against T1, SARS-CoV-2 nsp14 guanine-N7 methyltransferase (Severe acute respiratory syndrome coronavirus 2, UniProt P0DTD1) (assay: biochemical). Conditions: not given.
Assay type: biochemical

Row | Compound | IC50 [µM] | Inhibition of nsp14 activity (HTRF signal)
1 | O=C(CCCN1CCC(O)(c2cccc(C(F)(F)F)c2)CC1)c1ccc(F)cc1 [Trifluperidol] | 12.9 | 
2 | Nc1nc(OCc2cc(Br)cs2)c2[nH]cnc2n1 [Lomeguatrib] | 59.8 | 
3 | Nc1ncnc2c1ncn2[C@@H]1O[C@H](C[C@@H](N)CC[C@H](N)C(=O)O)[C@@H](O)[C@H]1O [sinefungin] |  | inhibited nsp14 activity in a dose-dependent manner

Same assay, conditions: read-out: Km (Michaelis constant) of substrate for nsp14

Row | Compound | Km [µM]
4 | Nc1nc2c(ncn2[C@@H]2O[C@H](COP(=O)(O)OP(=O)(O)OP(=O)(O)OC[C@H]3O[C@@H](n4cnc5c(N)ncnc54)[C@H](O)[C@@H]3O)[C@@H](O)[C@H]2O)c(=O)[nH]1 [GpppA] | 114 ± 21
5 | Nc1nc2c(ncn2[C@@H]2O[C@H](COP(=O)(O)OP(=O)(O)OP(=O)(O)O)[C@@H](O)[C@H]2O)c(=O)[nH]1 [GTP] | 301 ± 110

Same assay, conditions: read-out: Normalised HTRF50 (inhibition of nsp14 methyltransferase activity)

Row | Compound | IC50 [µM]
6 | Inauhzin | 23

What follows are compounds tested against T1, SARS-CoV-2 nsp14 guanine-N7 methyltransferase (assay: not given). Conditions: not given.
Assay type: biochemical

Row | Compound | Z-Score in primary screen
7 | CNCCCN1c2ccccc2CCc2ccccc21 [Desipramine hydrochloride] | 4.460
8 | CCN(CC)CC.Nc1ncnc2c1ncn2[C@@H]1O[C@@H]2COP(O)(=S)O[C@H]2[C@H]1O (stereo partly shown) [Sp-cAMPS triethylamine] | 3.048
9 | CC1(C)CNc2cc(NC(=O)c3cccnc3NCc3ccncc3)ccc21 [Motesanib] | 3.875
10 | C1=C2CCCN[C@H]2[C@@H]2C[C@H]1[C@H]1CCCCN1C2 [Aloperine] | 6.366
11 | CCCN1C[C@H](CSC)C[C@@H]2c3cccc4[nH]cc(c34)C[C@H]21 [Pergolide methanesulfonate] | 3.690
12 | Nc1ccc(C(=O)O)cc1 [p-Aminobenzoic acid] | 2.479
13 | C[N+]1(C)CCC[C@H]1C(=O)[O-].Cl [Stachydine hydrochloride] | 2.622
14 | CC(C[N+](C)(C)C)OC(N)=O (stereo not drawn) [Carbamyl-beta-methylcholine] | 3.385
15 | Bioymifi | 3.204
16 | O=C1NC(=O)C(c2ccccc2)(c2ccccc2)N1 [Phenytoin sodium] | 3.651
17 | COc1ccc2c(c1)[C@]13CCCC[C@@H]1[C@H](C2)N(C)CC3 [Dextromethorphan] | 3.036
18 | Inauhzin | 3.833
19 | O=C(CCCN1CCC(O)(c2cccc(C(F)(F)F)c2)CC1)c1ccc(F)cc1 [Trifluperidol] | 5.671
20 | COc1ccc(CCNC[C@H](O)c2ccc(O)cc2)cc1OC [R(-)-Denopamine] | 5.027
21 | CC(COc1ccc(/C=C/c2ccccc2)cc1)[N+](C)(C)C.[I-] (stereo not drawn) [N,N,N-trimethyl-1-(4-trans-stilbenoxy)-2-propylammonium iodide] | 3.028
22 | N#Cc1ccc(N2N=C3c4ccc(C(=O)O)cc4CC[C@@H]3[C@@H]2C2CCCC2)cc1Cl [PF-03882845] | 5.080
23 | C[C@]12CCC(=O)C=C1CC[C@@H]1[C@@H]2[C@@H](O)C[C@@]2(C)[C@H]1CC[C@]2(O)C(=O)CO [Hydrocortisone] | 4.062
24 | C[C@@H]1CC[C@H]2[C@@H](C)C(=O)O[C@@H]3O[C@@]4(C)CC[C@@H]1[C@]32OO4 [Artemisisin] | 2.850
25 | CCN1C[C@]2(C)CC[C@H](O)[C@]34C1[C@@H](C[C@H]23)[C@@]1(O)C[C@H](OC)[C@H]2C[C@@H]4[C@@H]1[C@H]2O [Karakoline] | 3.794
26 | Cl.Cl.Cl.Ic1ccc(N2CCN(Cc3c[nH]c4ncccc34)CC2)cc1 [L-750,667 trihydrochloride] | 3.788
27 | Cc1cncc(CN2CCC(=C3c4ccc(Cl)cc4CCc4cccnc43)CC2)c1.O=C(O)/C=C/C(=O)O [Rupatadine Fumarate] | 3.745
28 | Brc1c(NC2=NCCN2)ccc2nccnc12 [UK 14,304] | 3.074
29 | CCCCOc1ccc(CC(=O)NO)cc1 [Bufexamac] | 5.383
30 | CN1CCc2cc(Cl)c(O)cc2[C@@H](c2ccccc2)C1.Cl [R(+)-SCH-23390 hydrochloride] | 3.847
31 | c1ccc2c(c1)N=C(N1CCNCC1)c1ccccc1N2 [DREADD agonist 21] | 3.333
32 | NC(N)=NCc1cccc(I)c1.NC(N)=NCc1cccc(I)c1.O=S(=O)(O)O [m-Iodobenzylguanidine hemisulfate] | 4.530
33 | C[C@@H]1O[C@H](C[N+](C)(C)C)C[C@H]1O.[Cl-] (racemic) [(±)-Muscarine chloride] | 3.736
34 | CCC1(C)CC(=O)NC1=O (stereo not shown) [Ethosuximide] | 3.595

Row | Compound | Z-Score in primary screen
35 | O=c1c2ccccc2[se]n1-c1ccccc1 [Ebselen] | 5.010
36 | Br.NC1CCc2cc(O)c(O)cc2C1 (stereo not shown) [6,7-ADTN hydrobromide] | 3.690
37 | Nc1ncnc2c1ncn2C1CCCO1 (stereo not shown) [SQ 22536] | 3.378
38 | C[n+]1ccccc1CC(=O)c1ccc(Br)cc1.[I-] [S 24795] | 3.557
39 | CNCCc1ccc(O)c(O)c1.Cl [N-Methyldopamine hydrochloride] | 3.906
40 | CCn1nc(C(=O)O)c(=O)c2cc3c(cc21)OCO3 [Cinoxacin] | 3.126
41 | Nc1nc(OCc2cc(Br)cs2)c2[nH]cnc2n1 [Lomeguatrib] | 2.697
42 | CCCCC[C@H](O)/C=C/C=C\C/C=C\C=C\[C@@H](O)CCCC(=O)O [5(S),15(S)-DIHETE] | 3.436
43 | CC(Cc1ccc(O)cc1)NCC(O)c1cc(O)cc(O)c1 (stereo not shown) [Fenoterol hydrobromide] | 3.275
44 | C[C@H](N)C(=O)N1C[C@H](CCCB(O)O)[C@](N)(C(=O)O)C1 [CB-1158 (dihydrochloride)] | 4.540
45 | CC(C)(C)c1cc(C=C(C#N)C#N)cc(C(C)(C)C)c1O [Tyrphostin A9] | 3.261
46 | CCCCCCCCCCCCCC(=O)O[C@@H]1[C@@H](C)[C@@]2(O)[C@@H](C=C(CO)C[C@]3(O)C(=O)C(C)=C[C@@H]23)[C@@H]2C(C)(C)[C@]12OC(C)=O [Phorbol 12-myristate 13-acetate] | 7.036
47 | NC(=O)C(=O)O [Sodium Oxamate] | 3.379
48 | Cc1c(C(=O)O)c(O)cc2c1C(=O)c1c(O)c([C@@H]3O[C@H](CO)[C@@H](O)[C@H](O)[C@H]3O)c(O)c(O)c1C2=O [Carminic acid] | 3.060
49 | O=C(O)CCCCCCC(=O)O [Octanedioic acid] | 3.256
50 | COc1cc2c(cc1OC)CC(=O)N(CCCN(C)C[C@H]1Cc3cc(OC)c(OC)cc31)CC2 [Ivabradine] | 2.786
51 | CC(C)C(=O)Nc1ccc([N+](=O)[O-])c(C(F)(F)F)c1 [Flutamide] | 3.970
52 | CCCCN1CCCCC1C(=O)Nc1c(C)cccc1C (stereo not shown) [Bupivacaine] | 3.673
53 | CCC(Sc1nnc2c(n1)[nH]c1ccccc12)C(=O)N1c2ccccc2Sc2ccccc21 (stereo not shown) [10-[2-(5H-[1,2,4]triazino[5,6-b]indol-3-ylsulfanyl)butanoyl]-10H-phenothiazine] | 5.999
54 | CCCCNc1cc(C(=O)O)cc(S(N)(=O)=O)c1Oc1ccccc1 [Bumetanide] | 3.246
55 | O=c1c(O)c(-c2cc(O)c(O)c(O)c2)oc2cc(O)cc(O)c12 [Myricetin] | 6.539
56 | CC(N)c1cccc(Cl)c1Cl.Cl (racemic) [(±)-2,3-Dichloro-alpha-methylbenzylamine hydrochloride] | 3.186
57 | COc1ccc(C2=N[C@H](c3ccc(Cl)cc3)[C@H](c3ccc(Cl)cc3)N2C(=O)N2CCNC(=O)C2)c(OC(C)C)c1 [Nutlin (3b)] | 4.552
58 | c1ccc(CNc2nc(NCc3ccccc3)c3ccccc3n2)cc1 [DBeQ] | 4.776
59 | CNC[C@H](O)[C@@H](O)[C@H](O)[C@H](O)CO [Meglumine] | 3.529
60 | CC(C)[C@H](NC(=O)OCc1ccccc1)C(=O)N[C@H](C=O)Cc1ccccc1 [MDL 28170] (Cbz-Val-Phe-aldehyde) | 3.310
61 | Cl.NC1CCN(c2cccc(Cl)n2)CC1 [SR 57227A] | 4.099
